According to article PMC12947280, “An Antifungal with a Novel Mechanism of Action Discovered via Resistance Gene-Guided Genome Mining” (ACS Central Science, 2026):
Read-outs that look alike come from different tables or passages of the source.

Tests used:
A. fumigatus ALS = A. fumigatus ALS (Aspergillus fumigatus, UniProt Q4WXQ3); experiment: ALS biochemical assay (AfALS)
Method: ALS biochemical assay (AfALS)
Aspergillus fumigatus acetohydroxyacid synthase (AfILV2) lacking the N-terminal mitochondrial-targeting sequence (amino acids 112-752) was overproduced and isolated from E. coli as an N-terminally His6-tagged protein. Assays (50 µL final volume) contained 200 nM His6-AfALS, 8 mM pyruvate, 1 mM thiamine pyrophosphate, and 10 µM flavin adenine dinucleotide, 10 mM MgCl2, 1 mM DTT, 1% DMSO (± inhibitor) in 200 mM KH2PO4 buffer at pH
7.5. Following a 30 min pre-incubation of the enzyme and inhibitor in the reaction mixture at room temperature, reactions were initiated with the addition of pyruvate. AfALS assays were carried out at 30 °C for 120 min. The reaction was quenched with the addition of 5 µL of 10% H2SO4 (v/v in deionized water). Reactions were incubated at 60 °C at incubating microplate shaker for 15 min to convert the product of the ALS reaction, acetolactate, to acetoin.
Subsequently, the concentration of acetoin was determined by the addition of 7.5 µL 6 M NaOH, 25 µL 0.5% creatine (w/v in deionized water), and 25 µL 4% 1-naphthol (w/v in 2.5 M NaOH).
This mixture was incubated at 60 °C in an incubating microplate shaker for 15 min. 40 µL of this reaction mixture was transferred to a half area UV-star 96-well plate (Grenier) and the absorbance at 525 nm was measured on a Spark multimode plate reader (Tecan). The percent inhibition was calculated by the comparison of the signal to DMSO (0% inhibition) and no enzyme (100% inhibition) controls. IC50 values were calculated from the dose response curves using Prism 9 (four parameter, variable slope). […]
(amino acids 58-687) was codon optimized for expression in E. coli and synthesized by […]

A. fumigatus = experiment: Inhibition of A. fumigatus growth; format: cell-based
C. albicans ALS = C. albicans ALS (Candida albicans, UniProt A0A1D8PJF9); experiment: ALS biochemical assay (CaALS)
Sequence of C. albicans ALS (A0A1D8PJF9 entry or part of it): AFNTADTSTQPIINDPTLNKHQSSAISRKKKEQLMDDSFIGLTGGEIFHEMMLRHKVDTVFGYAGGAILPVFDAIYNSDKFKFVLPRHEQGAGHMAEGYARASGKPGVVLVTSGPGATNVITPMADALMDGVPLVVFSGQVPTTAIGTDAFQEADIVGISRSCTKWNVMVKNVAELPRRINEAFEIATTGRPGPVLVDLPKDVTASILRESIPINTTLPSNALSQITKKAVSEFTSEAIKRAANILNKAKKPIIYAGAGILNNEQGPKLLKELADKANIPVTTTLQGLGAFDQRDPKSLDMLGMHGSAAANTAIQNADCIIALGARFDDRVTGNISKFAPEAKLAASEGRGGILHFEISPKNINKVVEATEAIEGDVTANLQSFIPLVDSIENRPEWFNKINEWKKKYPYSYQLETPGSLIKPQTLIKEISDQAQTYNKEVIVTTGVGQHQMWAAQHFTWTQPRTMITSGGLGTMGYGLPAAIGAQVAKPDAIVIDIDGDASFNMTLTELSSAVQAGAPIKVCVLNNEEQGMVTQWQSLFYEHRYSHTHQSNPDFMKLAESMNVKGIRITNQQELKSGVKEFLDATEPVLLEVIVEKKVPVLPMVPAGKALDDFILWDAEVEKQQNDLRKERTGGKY

[1] = target: T1, S. cerevisiae ALS wild type (Saccharomyces cerevisiae, UniProt P07342); experiment: ALS biochemical assay (ScALS), wild type
T1 construct: made in house; host or cells: E. coli BL21 (DE3), pET28a-ScILV2
T1 sequence (P07342 58-687): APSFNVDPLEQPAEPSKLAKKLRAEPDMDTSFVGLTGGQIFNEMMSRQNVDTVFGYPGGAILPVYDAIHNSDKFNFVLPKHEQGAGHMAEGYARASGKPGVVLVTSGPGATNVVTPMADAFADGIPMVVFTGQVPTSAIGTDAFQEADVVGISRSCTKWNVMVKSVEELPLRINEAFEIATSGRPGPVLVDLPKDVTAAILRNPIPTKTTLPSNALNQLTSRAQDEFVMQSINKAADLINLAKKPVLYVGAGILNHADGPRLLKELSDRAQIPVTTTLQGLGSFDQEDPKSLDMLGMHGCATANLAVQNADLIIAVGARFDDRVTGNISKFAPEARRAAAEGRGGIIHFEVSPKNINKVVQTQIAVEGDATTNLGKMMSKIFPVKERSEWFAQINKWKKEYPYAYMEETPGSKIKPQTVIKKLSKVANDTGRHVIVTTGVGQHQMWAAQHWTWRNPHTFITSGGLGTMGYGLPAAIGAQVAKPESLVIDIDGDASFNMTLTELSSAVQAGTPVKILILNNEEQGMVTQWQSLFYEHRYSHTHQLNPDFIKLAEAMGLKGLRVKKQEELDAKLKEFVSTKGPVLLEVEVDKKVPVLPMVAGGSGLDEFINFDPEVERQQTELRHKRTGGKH
Method: (§1) ALS biochemical assay (ScALS)
(§2) Saccharomyces cerevisiae acetohydroxyacid synthase (ScALS) lacking the N-terminal […]
(§3) Escherichia coli as an N-terminally His6-tagged protein. Assays (50 µL final volume) contained […]
(§4) adenine dinucleotide, 10 mM MgCl2, 1 mM DTT, 1% DMSO (± inhibitor) in 500 mM K2HPO4 buffer at pH 7.5. Following a 30 min pre-incubation of the enzyme and inhibitor in the reaction mixture at room temperature, reactions were initiated with the addition of pyruvate. ScALS assays were carried out at 30 °C for 60 min. The reaction was quenched with the addition of 5 µL of 10% H2SO4 (v/v in deionized water). Reactions were incubated at 60 °C at 800 rpm in an […]
(§5) to acetoin. Subsequently, the concentration of acetoin was determined by the addition of 7.5 µL 6 M NaOH, 25 µL 0.5% creatine (w/v in deionized water), and 25 µL 4% 1-naphthol (w/v in 2.5 M NaOH). This mixture was incubated at 60 °C at 800 rpm in an incubating microplate shaker for […]
(§6) 40 µL of this reaction mixture was transferred to a half area UV-star 96-well plate (Grenier) and the absorbance at 525 nm was measured on a Spark multimode plate reader (Tecan). The percent inhibition was calculated by the comparison of the signal to DMSO (0% […]
(§7) IC50 values were calculated from the dose response curves using Prism 9 (four parameter, variable slope). […]
(§8) Expression and purification of ScALS
(§9) S. cerevisiae ILV2 (the gene or ScALS) lacking the N-terminal mitochondrial-localization tag

S. cerevisiae ALS P192S = target: T2, S. cerevisiae ALS P192S (Saccharomyces cerevisiae, UniProt P07342, P192S); experiment: biochemical; format: biochemical
T2 construct: His6 (followed by a TEV protease site, pET28a) (N); made in house; host or cells: E. coli (inferred from the ScALS method)
T2 sequence (P07342 58-687 P192S): as the sequence (P07342 58-687) above, with P135S counted along it
Method: as §1, §2, §3, §4, §5, §6, §7, §8, §9

[2] = Aspergillus fumigatus; read-out: A. fumigatus growth inhibition EC50 (Figure 4A)
[3] = Aspergillus fumigatus; read-out: A. fumigatus growth inhibition IC50

Sequence of A. fumigatus ALS (Q4WXQ3 entry or part of it): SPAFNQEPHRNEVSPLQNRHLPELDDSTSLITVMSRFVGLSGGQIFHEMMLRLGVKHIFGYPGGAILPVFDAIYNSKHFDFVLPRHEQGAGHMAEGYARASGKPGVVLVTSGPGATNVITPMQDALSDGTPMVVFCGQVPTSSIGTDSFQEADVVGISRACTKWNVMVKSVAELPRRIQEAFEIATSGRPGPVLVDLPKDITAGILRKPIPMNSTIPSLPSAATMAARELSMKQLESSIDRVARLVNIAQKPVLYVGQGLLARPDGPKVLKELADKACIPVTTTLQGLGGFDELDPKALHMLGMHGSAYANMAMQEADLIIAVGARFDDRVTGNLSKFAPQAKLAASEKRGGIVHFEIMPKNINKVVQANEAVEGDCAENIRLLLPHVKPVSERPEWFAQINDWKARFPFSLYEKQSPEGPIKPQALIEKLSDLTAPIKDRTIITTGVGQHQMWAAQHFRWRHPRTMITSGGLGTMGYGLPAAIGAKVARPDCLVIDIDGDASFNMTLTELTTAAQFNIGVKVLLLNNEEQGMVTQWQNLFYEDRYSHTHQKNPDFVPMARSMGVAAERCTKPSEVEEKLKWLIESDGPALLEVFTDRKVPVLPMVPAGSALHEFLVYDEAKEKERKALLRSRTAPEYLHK

| Structure (SMILES) | IC50 (A. fumigatus ALS) [nM] | EC50 (A. fumigatus; [2]) [nM] | IC50 (A. fumigatus; [3]) [nM] | IC50 (C. albicans ALS) [nM] | other results |
| --- | --- | --- | --- | --- | --- |
| COC(=O)c1ccccc1CS(=O)(=O)NC(=O)Nc1nc(OC)cc(OC)n1 [compound 2, bensulfuron methyl] | 100 ± 20 | 57000 ± 20000 | 200000 | 30 ± 4 |  |
| CCOC(=O)c1ccccc1S(=O)(=O)NC(=O)Nc1nc(Cl)cc(OC)n1 [compound 5, chlormuron ethyl] | 11 ± 3 |  |  |  | EC50 (A. fumigatus; Aspergillus fumigatus, read-out: A. fumigatus growth inhibition EC50 (Figure 4A)): 80000 ± 30000 nM; IC50 (A. fumigatus; Aspergillus fumigatus, read-out: A. fumigatus growth inhibition IC50): 90000 nM; IC50 (C. albicans ALS; recombinant CaALS, read-out: ALS IC50 C. albicans): 27 ± 5 nM |
| COc1cnc(OC)n2nc(NS(=O)(=O)c3c(OCC(F)F)cccc3C(F)(F)F)nc12 [compound 3, penoxsulam] | 0.5 ± 0.2 | 23000 ± 7000 | 25000 | 3.4 ± 0.6 | IC50 [1]: 0.4 ± 0.2 nM; IC50 (S. cerevisiae ALS P192S): 150 ± 30 nM |
| C[C@@H](c1ncncc1F)[C@](O)(Cn1cncn1)c1ccc(F)cc1F [Voriconazole, voriconazole] |  | 500 ± 200 | 500 |  |  |
| COc1cc(OC)nc(Oc2cccc(Oc3nc(OC)cc(OC)n3)c2C(=O)O)n1 [compound 4, bispyribac, reference compound] |  |  |  |  | IC50 ([1]; recombinant ScALS, read-out: S. cerevisiae ALS IC50 Wild type): 600 ± 100 nM |
